# Laboratory results as given in patent US10597388B2, “Pyridazinone herbicides” (FMC CORPORATION, priority 2014, dated 2020).
# Assays:
# Assay in all cases: Test D controlled growth environment herbicide test, pre- and postemergence
# Type in all cases: in vivo
# [1] = test system: lambsquarters (Chenopodium album)
# In short: (§1)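 Species sown in silt loam and sprayed preemergence, or grown in peat-based medium to 2–18 cm (1- to 4-leaf stage) and sprayed postemergence, with compounds in non-phytotoxic solvent plus surfactant. Visual injury scored versus controls after 14–21 d in a controlled environment, 0 (no effect) to 100 (complete control).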
# [2] = test system: bluegrass (annual bluegrass, Poa annua)
# In short: as §1
# [3] = test system: barley, winter (winter barley, Hordeum vulgare)
# In short: as §1
# [4] = test system: barley, spring (spring barley, Hordeum vulgare)
# In short: as §1
# [5] = test system: galium (catchweed bedstraw, Galium aparine)
# In short: as §1
# [6] = test system: chamomile (scentless chamomile, Matricaria inodora)
# In short: as §1
# [7] = test system: radish, wild (wild radish, Raphanus raphanistrum)
# In short: as §1
# [8] = test system: windgrass (Apera spica-venti)
# In short: as §1
# [9] = test system: field poppy (Papaver rhoeas)
# In short: as §1
# [10] = test system: canarygrass (Phalaris minor)
# In short: as §1
# [11] = test system: field violet (Viola arvensis)
# In short: as §1
# [12] = test system: buckwheat, wild (wild buckwheat, Polygonum convolvulus)
# In short: as §1
# [13] = test system: pigweed (Amaranthus retroflexus)
# In short: as §1
# [14] = test system: kochia (Kochia scoparia)
# In short: as §1
# [15] = Postemergence, 31 g ai/ha, scale 0 to 100 (0 no effect, 100 complete control)
# [16] = Postemergence, 125 g ai/ha, visual rating on scale 0 (no effect) to 100 (complete control), 14 to 21 d
# [17] = Postemergence, 250 g ai/ha, scale 0 to 100 (0 no effect, 100 complete control)
# [18] = Preemergence, 62 g ai/ha, scale 0 to 100 (0 no effect, 100 complete control)
# [19] = Preemergence, 125 g ai/ha, scale 0 to 100 (0 no effect, 100 complete control)
# [20] = Preemergence, 250 g ai/ha, scale 0 to 100, 0 no effect, 100 complete control
# [21] = postemergence, 62 g ai/ha, scale 0 to 100, 0 no effect, 100 complete control
smiles,measurement,setting,value
"Cc1cc(C)c2sc(C)c(-c3c(O)c(C)nn(C)c3=O)c2c1 [Compound 2, 5-hydroxy-2,6-dimethyl-4-(2,5,7-trimethylbenzo[b]thien-3-yl)-3(2H)-pyridazinone]",Lambsquarters plant response rating,[1]; [15],90
same,"Plant response rating, Lambsquarters",[1]; [16],95
same,"Plant response rating, Lambsquarters",[1]; [17],100
same,"Plant response rating (scale of 0 to 100), Lambsquarters","[1]; Preemergence, 31 g ai/ha",15
same,"Plant response rating, Lambsquarters",[1]; [18],60
same,"Plant response rating, Lambsquarters",[1]; [19],100
same,"Plant response rating, Lambsquarters",[1]; [20],100
same,"Plant response rating, Lambsquarters",[1]; [21],90
same,Bluegrass plant response rating,[2]; [15],5
same,"Plant response rating, Bluegrass",[2]; [16],5
same,"Plant response rating, Bluegrass",[2]; [17],15
same,"Plant response rating (scale of 0 to 100), Bluegrass","[2]; Preemergence, 31 g ai/ha",0
same,"Plant response rating, Bluegrass",[2]; [18],15
same,"Plant response rating, Bluegrass",[2]; [19],30
same,Bluegrass plant response rating,[2]; [20],50
same,"Plant response rating, Bluegrass",[2]; [21],10
same,"Plant response rating, Barley, Winter",[3]; [15],10
same,"Plant response rating, Barley, Winter",[3]; [16],15
same,"Plant response rating, Barley, Winter",[3]; [17],10
same,"Plant response rating (scale of 0 to 100), Barley, Winter","[3]; Preemergence, 31 g ai/ha",0
same,"Plant response rating, Barley, Winter",[3]; [18],0
same,"Plant response rating, Barley, Winter",[3]; [19],0
same,"Barley, Winter plant response rating",[3]; [20],0
same,"Plant response rating, Barley, Winter",[3]; [21],10
same,"Plant response rating, Barley, Spring",[4]; [15],0
same,"Plant response rating, Barley, Spring",[4]; [16],5
same,"Plant response rating, Barley, Spring",[4]; [17],5
same,"Plant response rating (scale of 0 to 100), Barley, Spring","[4]; Preemergence, 31 g ai/ha",0
same,"Plant response rating, Barley, Spring",[4]; [18],0
same,"Plant response rating, Barley, Spring",[4]; [19],0
same,"Barley, Spring plant response rating",[4]; [20],0
same,"Plant response rating, Barley, Spring",[4]; [21],0
same,Galium plant response rating,[5]; [15],85
same,"Plant response rating, Galium",[5]; [16],100
same,"Plant response rating, Galium",[5]; [17],100
same,"Plant response rating (scale of 0 to 100), Galium","[5]; Preemergence, 31 g ai/ha",100
same,"Plant response rating, Galium",[5]; [18],85
same,"Plant response rating, Galium",[5]; [19],100
same,"Plant response rating, Galium",[5]; [20],100
same,"Plant response rating, Galium",[5]; [21],100
same,Chamomile plant response rating,[6]; [15],70
same,"Plant response rating, Chamomile",[6]; [16],90
same,"Plant response rating, Chamomile",[6]; [17],100
same,"Plant response rating (scale of 0 to 100), Chamomile","[6]; Preemergence, 31 g ai/ha",80
same,"Plant response rating, Chamomile",[6]; [18],100
same,"Plant response rating, Chamomile",[6]; [19],95
same,"Plant response rating, Chamomile",[6]; [20],100
same,"Plant response rating, Chamomile",[6]; [21],80
same,"Radish, Wild plant response rating",[7]; [15],25
same,"Plant response rating, Radish, Wild",[7]; [16],65
same,"Plant response rating, Radish, Wild",[7]; [17],60
same,"Plant response rating (scale of 0 to 100), Radish, Wild","[7]; Preemergence, 31 g ai/ha",0
same,"Plant response rating, Radish, Wild",[7]; [18],5
same,"Plant response rating, Radish, Wild",[7]; [19],15
same,"Plant response rating, Radish, Wild",[7]; [20],100
same,"Plant response rating, Radish, Wild",[7]; [21],55
same,Windgrass plant response rating,[8]; [15],10
same,"Plant response rating, Windgrass",[8]; [16],55
same,"Plant response rating, Windgrass",[8]; [17],70
same,"Plant response rating (scale of 0 to 100), Windgrass","[8]; Preemergence, 31 g ai/ha",60
same,"Plant response rating, Windgrass",[8]; [18],75
same,"Plant response rating, Windgrass",[8]; [19],95
same,"Plant response rating, Windgrass",[8]; [20],100
same,"Plant response rating, Windgrass",[8]; [21],25
same,Field Poppy plant response rating,[9]; [15],75
same,"Plant response rating, Field Poppy",[9]; [16],100
same,"Plant response rating, Field Poppy",[9]; [17],100
same,"Plant response rating (scale of 0 to 100), Field Poppy","[9]; Preemergence, 31 g ai/ha",95
same,"Plant response rating, Field Poppy",[9]; [18],95
same,"Plant response rating, Field Poppy",[9]; [19],95
same,"Plant response rating, Field Poppy",[9]; [20],100
same,"Plant response rating, Field Poppy",[9]; [21],95
same,Canarygrass plant response rating,[10]; [15],25
same,"Plant response rating, Canarygrass",[10]; [16],55
same,"Plant response rating, Canarygrass",[10]; [17],75
same,"Plant response rating (scale of 0 to 100), Canarygrass","[10]; Preemergence, 31 g ai/ha",40
same,"Plant response rating, Canarygrass",[10]; [18],60
same,"Plant response rating, Canarygrass",[10]; [19],85
same,"Plant response rating, Canarygrass",[10]; [20],90
same,"Plant response rating, Canarygrass",[10]; [21],40
same,Field Violet plant response rating,[11]; [15],60
same,"Plant response rating, Field Violet",[11]; [16],75
same,"Plant response rating, Field Violet",[11]; [17],80
same,"Plant response rating (scale of 0 to 100), Field Violet","[11]; Preemergence, 31 g ai/ha",95
same,"Plant response rating, Field Violet",[11]; [18],100
same,"Plant response rating, Field Violet",[11]; [19],100
same,"Plant response rating, Field Violet",[11]; [20],100
same,"Plant response rating, Field Violet",[11]; [21],85
same,"Buckwheat, Wild plant response rating",[12]; [15],85
same,"Plant response rating, Buckwheat, Wild",[12]; [16],100
same,"Plant response rating, Buckwheat, Wild",[12]; [17],100
same,"Plant response rating, Buckwheat, Wild",[12]; [18],10
same,"Plant response rating, Buckwheat, Wild",[12]; [19],100
same,"Plant response rating, Buckwheat, Wild",[12]; [20],100
same,"Plant response rating, Buckwheat, Wild",[12]; [21],95
same,Pigweed plant response rating,[13]; [15],70
same,"Plant response rating, Pigweed",[13]; [16],85
same,"Plant response rating, Pigweed",[13]; [17],95
same,"Plant response rating (scale of 0 to 100), Pigweed","[13]; Preemergence, 31 g ai/ha",25
same,"Plant response rating, Pigweed",[13]; [18],50
same,"Plant response rating, Pigweed",[13]; [19],65
same,"Plant response rating, Pigweed",[13]; [20],100
same,"Plant response rating, Pigweed",[13]; [21],80
same,Kochia plant response rating,[14]; [15],50
same,"Plant response rating, Kochia",[14]; [16],65
same,"Plant response rating, Kochia",[14]; [17],70
same,"Plant response rating (scale of 0 to 100), Kochia","[14]; Preemergence, 31 g ai/ha",0
same,"Plant response rating, Kochia",[14]; [18],0
same,"Plant response rating, Kochia",[14]; [19],0
same,"Plant response rating, Kochia",[14]; [20],20
same,"Plant response rating, Kochia",[14]; [21],60
